Results on 1 compound are retold here after patent EP4663207A1, “LYMPHATIC VESSEL CONTRAST AGENT WITHOUT VENOUS CONTAMINATION” (Inventera Inc., priority 2023, dated 2024).

Read-outs that look alike come from different tables or passages of the source.

In data set [1] the test system is popliteal lymph node and surrounding lymphatic vessels. The data set can be described thus: Magnetic resonance lymphangiography (MRL) in rats, Example 1. The class given is in vivo, male Sprague-Dawley (SD) rats. As for the experimental part: Specifically, all animals used in Example 1 were male Sprague-Dawley (SD) rats weighing 250-300 g. The prepared contrast agent was administered intradermally/subcutaneously into the fourth digits of both hind limbs using a 30-gauge needle. MRL was performed every 16 minutes using a 3D time-of-flight (TOF) sequence with a saturation band on a 9.4-T preclinical MRI scanner.
Gd-DOTA (Gd-DOTA, DOTAREM, Guerbet, Roissy CdG Cedex, France) was used as a Gd-based contrast agent. The Gd-DOTA stock solution, provided at a concentration of 500 mM, was diluted with normal saline before its administration.
The signal-to-noise ratio (SNR) and contrast-to-noise ratio (CNR) of the popliteal lymph node and surrounding lymphatic vessels were analyzed at a dose of 1.125 µmol (75 µL, 15 mM) of INV-001 and Gd-DOTA. Through sequential MRI imaging, dynamic patterns of SNR and CNR and peak time points in the popliteal lymph node and lymphatic vessels were obtained (FIG. 4a). […] In the 1.125 µmol INV-001 group, peak enhancement appeared between 16 and 32 minutes during extended visualization (SNRLN: 23.49 ± 8.64; SNRLV: 16.05 ± 3.52; CNRLN: 15.87 ± 11.05; CNRLV: 12.58 ± 3.37) (FIG. 4b).
Following injection of the contrast agents into the hind limb, magnetic resonance lymphangiography (MRL) was performed using 3D TOF under saturation band conditions to distinguish lymphatic vessels. […] In contrast, in all INV-001 groups, the popliteal lymph node and lymphatic vessels were clearly visualized without venous contamination (FIGs. 5e, 5f, and 5g, yellow arrows). Methylene blue was injected two days after MRL to verify the anatomical structures (FIGs. 5d and 5h).
Qualitative image analyses under various injection conditions were performed using Gd-DOTA and INV-001. In all groups, MRL provided good visualization of the popliteal lymph node and lymphatic vessels (FIG. 6). The qualitative image analysis was conducted according to the criteria shown in Table 1 (Criteria for qualitative score).

A further data set has as its system knee joint cavity. The data set can be described thus: Magnetic resonance arthrography after intra-articular injection in rats. The class given is in vivo, Male Sprague-Dawley rats. The procedure:
Male Sprague-Dawley rats aged 7 weeks or older were anesthetized using a mixture of oxygen and isoflurane gas. INV-002 synthesized in Example 4-1 was then administered into the knee joint, and T1-weighted MRI images were acquired using a fast spin echo sequence.
For example, the T1 signal intensity of the synovial fluid increased from 4,900 (before injection) to 21,000 (after injection). Subsequently, the contrast-to-noise ratios (CNRs) of various anatomical regions within the joint cavity- including the meniscus, joint capsule, cruciate ligament, bone, and fat - were analyzed (FIG. 22F). The CNR was calculated as the difference in average signal intensity between the synovial fluid and each anatomical structure, divided by the standard deviation of the background signal. After INV-002 injection, the CNRs for the meniscus, capsule, cruciate ligament, bone, and fat regions increased by 10-fold, 8.5-fold, 18-fold, 14-fold, 12-fold, […], respectively, compared to pre-injection levels.
The contrast effect of INV-002 was not only stronger than that of the gadolinium-based contrast agent (e.g., Dotarem) but also lasted longer. For quantitative analysis of contrast enhancement, the signal-to-noise ratio (SNR) was measured at two intra-articular locations (indicated by orange arrows), and the average SNR was plotted over time. […]

Data set [2] can be described thus: MR relaxivity, phantom at 9.4 T. As for the experimental part:
The hydrodynamic size of INV-001 was measured to be 3.6 nm (FIG. 3b). Subsequently, the T1 and T2 relaxation rates (1/T1 and 1/T2) of INV-001 were measured at 9.4 T (FIG. 3c). The longitudinal and transverse relaxivities (r1 and r2) were calculated at various INV-001 concentrations (0.125, 0.25, 0.5, and 1.0 mM). The r1 was determined to be 2.61 mM^-1·s^-1 and the r2 was 4.33 mM^-1·s^-1 (FIGS. 3d and 3e).

For another data set, the system named is lymphatic vessels. Description: MRL after intradermal injection, Example 2. In kind it is in vivo, rats. The note with it: lower limb, checked with methylene blue. The procedure:
INV-001 was administered intradermally into the interdigital space of the lower limb of animals using a 31-gauge syringe. The injection volume was set at 10, 20, 30, 40, 50, or 75 microliters per animal, corresponding to a human equivalent dose of 2, 4, 6, 8, 10, or 15 mL, respectively.
Prior to MRI acquisition, the animals were anesthetized by inhalation of isoflurane delivered in oxygen at a concentration of 0.5-2%. If necessary, local anesthesia with lidocaine was applied to relieve procedural discomfort.
Baseline MRI images were acquired prior to the administration of the contrast agent. Following the injection of INV-001 prepared in Example 2-1, MRI scans were conducted every 16 minutes for a total of 96 minutes. The imaging sequence used was 3D Time-of-Flight Gradient Echo (3D TOF GRE), with images obtained in axial, sagittal, and coronal planes. […]
Maximum intensity projection (MIP) images were generated from the baseline and post-injection MRI data acquired at 16-minute intervals for 96 minutes. […] The overall image quality, including vessel discontinuity, was assessed using a four-point scale (-, +, ++, +++). Additionally, the presence of dermal backflow and lymph node congestion was evaluated. […]
To confirm the clearance of the injected contrast agent, the administration site was evaluated 24 hours after intradermal injection.

A short description of data set [3]: MR relaxivity, phantom at 3 T. Conditions: 3 T MRI. From the text: The r2/r1 ratio serves as a metric for determining whether the nanoparticles are more appropriate for use as T1 MRI contrast agents or T2 MRI contrast agents.
The hydrodynamic diameter of the synthesized INV-001 was 3.9 nm with a surface charge of -3.3 mV. […] The particle size of this contrast agent exceeds the maximum size (2 nm) permissible for intravasation, thereby preventing its entry into blood vessels. Thus, it is theoretically suitable for use as a lymphatic-specific contrast agent that infiltrates the lymphatic vessels without venous contamination when administered intradermally or subcutaneously.
The measured r1 and r2 relaxivity values of NEMO-103 were 2.0 mM^-1s^-1 and 2.3 mM^-1s^-1, respectively (FIGS. 29d and 29e). The r2/r1 ratio, which is an important parameter for T1 MRI contrast agents, was calculated to be 1.15. […] For comparison, the measured r1 and r2 values of Dotarem® were 4.7 mM^-1s^-1 and 5.2 mM^-1s^-1, respectively, resulting in an r2/r1 ratio of 1.11.
To evaluate the T1 MRI performance of the materials from Example 7-7, both the spin-spin relaxivity coefficient (r2) and spin-lattice relaxivity coefficient (r1) were measured, and the r2/r1 ratio was calculated. The r2/r1 ratio is a critical indicator in determining whether a contrast agent is suitable for T1 or T2 MRI.

Setting [4] is: 1.125 µmol (75 µL, 15 mM), at peak enhancement.

With `CNC[C@H](O)[C@@H](O)[C@H](O)[C@H](O)CO.O=C([O-])CN1CCN(CC(=O)[O-])CCN(CC(=O)O)CCN(CC(=O)[O-])CC1.[Gd+3]` [Gd-DOTA], the qualitative score in data set [1] came out at 3.2; in data set [1] (2.25 µmol (75 µL, 30 mM)), 3.8. Also, the venous contamination entry in data set [1] (1.125 µmol (75 µL, 15 mM), hind limb) is “venous contamination was observed”; in data set [1] (2.25 µmol (75 µL, 30 mM), hind limb) it was “venous contamination was observed”; in data set [1] (doses of 0.45 µmol or higher (discussion)), “venous contamination in most animals”. Besides, the CNRLN in data set [1] (setting [4]) was determined as 21.61 ± 10.04. Also, the CNRLV in data set [1] (setting [4]) is 7.89 ± 5.15. For the same compound, the SNRLV in data set [1] (setting [4]) stood at 11.15 ± 5.83. Also, the SNRLN in data set [1] (1.125 µmol (75 µL, 15 mM), at peak enhancement (Gd-DOTA 16 min, INV-001 16-32 min)) came out at 26.96 ± 10.78. For the same compound, the “time of peak enhancement post-injection” value in data set [1] (popliteal lymph node and lymphatic vessels, scans every 16 min) was found to be 16 min. Moreover, the “time of peak SNR post-injection” value in the data set with knee joint cavity (average of two intra-articular locations) stood at 0.25 h. In addition, the “SNR dropped to baseline within” value in the data set on knee joint cavity (post-injection) was not above 0.5 h. For the same compound, in data set [2], the “T1 contrast enhancement in phantom studies” value is approximately 3.7 mM⁻¹ s⁻¹. In the data set with lymphatic vessels, the “enhancement of lymphatic vessels versus veins (venous contamination)” value is reported as “preferentially enhanced veins more than lymphatic vessels”. The compound also had a r1 in data set [3] of 4.7 mM⁻¹ s⁻¹.
